{"source": "patent US20240358015A1", "about": "“HERBICIDAL COMPOSITIONS” (Agrematch Ltd., priority 2021, published 2024)", "key": {"[1]": {"system": "S. nigrum", "assay": "Growth-chamber post-emergence assay on various weed species (Example 7)", "type": "in vivo, Solanum nigrum", "settings": "0.05% Break-Thru", "description": "(§1) Herbicidal activity of Compound 1 was determined by post-emergence application on various weed species. 8-14 day old plants (weeds) were grown at 16 hours/8 hours day/night cycles at 30° C./25° C., respectively. Leaf stage was typically 2-6.\n(§2) In each treatment, 3 pots (either 7×7 or 8×12 cm), containing about 3-6 plants each, were sprayed using a VL-SET Paasche Airbrush with a 1-1.5 ml-solution containing 0.5-1.5 mg/ml of the tested compound, which is equivalent to about 500-1500 g/ha.\n(§3) Damage assessment: Herbicidal activity was assessed and scored 3-4 days after application by visual inspection of the plants in comparison to plants treated with the formulation alone (with no active ingredient) as control. Activity score is in the range of 0 to 100, where 0 represents no herbicidal activity like control plants and 100 represents the maximal herbicidal activity (i.e., total death of the plant)."}, "[2]": {"system": "A. palmeri", "assay": "Growth-chamber post-emergence assay on various weed species (Example 7)", "type": "in vivo, Amaranthus palmeri", "settings": "0.05% Break-Thru, 3-4 days after application", "description": "as §1, §2, §3"}, "[3]": {"system": "B. cinerea", "assay": "PDA plate fungicidal assay (Example 4)", "type": "cell-based, Botrytis cinerea", "settings": "average of two plates", "description": "Compound 1 was dissolved in 0.05 M Tris buffer pH=8 to a concentration of 4 mg/ml, and then diluted with a sterile PDA solution to final concentrations of 40 and 400 μg/ml. 10 ml of each solution were poured to a 100 mm petri dish and left to cool down. A 0.5 cm diameter agar disc inoculated with 3-day old B. cinerea hypha was placed upside down in the center of each PDA plate. Each treatment contained two repeats (two plates). Plates were incubated at 21° C. for 4 days. Fungicidal activity was scored by measuring the radial growth area of the hypha. Results were recorded 2-4 days after inoculation (DAI). % growth inhibition was calculated relative to control treatment without Compound 1."}, "[4]": {"system": "Resistant A. rudis (target-site resistant to HRAC class 5)", "assay": "Net-house assay with resistant weeds (Example 9)", "type": "in vivo, Amaranthus rudis", "settings": "1,500 g/ha, 13 days after application, scale 0-100", "description": "(§4) Herbicidal activity of Compound 1 was determined by post-emergence application in both Growth-chamber and Net-house conditions. Growing conditions were as described in Examples 6 and 8 above.\n(§5) The assay was performed on 13-15 day old plants (weeds) of Amaranthus rudis that were either target-site resistant or sensitive to HRAC class 5. In each treatment, 3 pots (8×12 cm), containing about 6 Amaranthus Rudis plants, were sprayed using a VL-SET Paasche Airbrush with a 1 ml-solution.\nas §3, with “13” for “3-4”"}, "[5]": {"system": "Sensitive A. rudis", "assay": "Net-house assay with resistant weeds (Example 9)", "type": "in vivo, Amaranthus rudis", "settings": "1,500 g/ha, 13 days after application, scale 0-100", "description": "as §4, §5\nas §3, with “13” for “3-4”"}, "[6]": {"system": "Resistant A. rudis (target-site resistant to HRAC class 5)", "assay": "Growth-chamber assay with resistant weeds (Example 9)", "type": "in vivo, Amaranthus rudis", "settings": "2,000 g/ha, 4-5 days after application, scale 0-100", "description": "as §4\nas §5, with “9-11” for “13-15”, “treatment, between 1 to” for “treatment,”\nas §3, with “4-5” for “3-4”"}, "[7]": {"system": "Sensitive A. rudis", "assay": "Growth-chamber assay with resistant weeds (Example 9)", "type": "in vivo, Amaranthus rudis", "settings": "2,000 g/ha, 4-5 days after application, scale 0-100", "description": "as §4\nas §5, with “9-11” for “13-15”, “treatment, between 1 to” for “treatment,”\nas §3, with “4-5” for “3-4”"}, "[8]": {"system": "D. ferox", "assay": "Growth-chamber post-emergence assay on various weed species (Example 7)", "type": "in vivo", "settings": "1500 g/ha; 0.8% MIPA, 0.25% Genapol, 2% HASTEN, 0.05% Break-Thru", "description": "as §1, §2, §3"}, "[9]": {"system": "T. vulgare", "assay": "Growth-chamber post-emergence assay on various weed species (Example 7)", "type": "in vivo", "settings": "500 g/ha; 0.8% MIPA, 0.25% Genapol, 1% AGNIQUE, 0.05% Ca-LAS, 0.02% BSU, 0.05% Break-Thru", "description": "as §1, §2, §3"}, "[10]": {"system": "A. retroflexus", "assay": "Growth-chamber post-emergence assay on various weed species (Example 7)", "type": "in vivo", "settings": "500 g/ha; 0.8% MIPA, 0.25% Genapol, 1% AGNIQUE, 0.05% Ca-LAS, 0.02% BSU, 0.05% Break-Thru", "description": "as §1, §2, §3"}, "[11]": {"system": "S. alba", "assay": "Growth-chamber post-emergence assay on various weed species (Example 7)", "type": "in vivo", "settings": "500 g/ha; 0.8% MIPA, 0.25% Genapol, 1% AGNIQUE, 0.05% Ca-LAS, 0.02% BSU, 0.05% Break-Thru", "description": "as §1, §2, §3"}, "[12]": {"system": "L. multiflorum", "assay": "Growth-chamber post-emergence assay on various weed species (Example 7)", "type": "in vivo, Lolium multiflorum", "settings": "1500 g/ha; 0.8% MIPA, 0.25% Genapol, 2% HASTEN, 0.05% Break-Thru", "description": "as §1, §2, §3"}, "[13]": {"system": "E. colonum", "assay": "Growth-chamber post-emergence assay on various weed species (Example 7)", "type": "in vivo, Echinochloa colonum", "settings": "1500 g/ha; 0.8% MIPA, 0.25% Genapol, 2% HASTEN, 0.05% Break-Thru", "description": "as §1, §2, §3"}, "[14]": {"settings": "750 g/ha, 0.2% MIPA, 2% TWEEN20, 1% AGNIQUE, 0.05% Ca-LAS, 0.02% BSU"}, "[15]": {"settings": "1500 g/ha, 0.8% MIPA, 0.25% Genapol, 2% HASTEN"}}}
{"smiles": "O=C(O)c1cc(O)c2c(c1)C(=O)c1cccc(O)c1C2=O", "note": "[Compound 1, Rhein]", "values": [{"measurement": "Herbicidal activity score", "setting": "[1]; [14]", "value": 95}, {"measurement": "Herbicidal activity score", "setting": "[1]; [15]", "value": 100}, {"measurement": "Herbicidal activity score", "setting": "[2]; 500 g/ha, 0.8% MIPA, 0.25% Genapol, 1% AGNIQUE, 0.05% Ca-LAS, 0.02% BSU, scale 0-100", "value": 100}, {"measurement": "Herbicidal activity score", "setting": "[2]; [14]", "value": 100}, {"measurement": "Herbicidal activity score", "setting": "[2]; [15]", "value": 100}, {"measurement": "% growth inhibition (radial growth area of the hypha, relative to control)", "setting": "[3]; 40 μg/ml in PDA, 2 DAI", "value": 61, "unit": "%"}, {"measurement": "% growth inhibition (radial growth area of the hypha, relative to control)", "setting": "[3]; 40 μg/ml in PDA, 3 DAI", "value": 82, "unit": "%"}, {"measurement": "% growth inhibition (radial growth area of the hypha, relative to control)", "setting": "[3]; 40 μg/ml in PDA, 4 DAI", "value": 86, "unit": "%"}, {"measurement": "% growth inhibition (radial growth area of the hypha, relative to control)", "setting": "[3]; 400 μg/ml in PDA, 2 DAI", "value": 82, "unit": "%"}, {"measurement": "% growth inhibition (radial growth area of the hypha, relative to control)", "setting": "[3]; 400 μg/ml in PDA, 3 DAI", "value": 88, "unit": "%"}, {"measurement": "% growth inhibition (radial growth area of the hypha, relative to control)", "setting": "[3]; 400 μg/ml in PDA, 4 DAI", "value": 83, "unit": "%"}, {"measurement": "Herbicidal activity score", "setting": "[4]", "value": 100}, {"measurement": "Herbicidal activity score", "setting": "[5]", "value": 100}, {"measurement": "Herbicidal activity score", "setting": "[6]", "value": 100}, {"measurement": "Herbicidal activity score", "setting": "[7]", "value": 100}, {"measurement": "Herbicidal activity score", "setting": "[8]", "value": 95}, {"measurement": "Herbicidal activity score", "setting": "[9]", "value": 10}, {"measurement": "Herbicidal activity score", "setting": "[10]", "value": 85}, {"measurement": "Herbicidal activity score", "setting": "[11]", "value": 80}, {"measurement": "Herbicidal activity score", "setting": "[12]", "value": 50}, {"measurement": "Herbicidal activity score", "setting": "[13]", "value": 90}]}
